Measurements as given in paper PMC6152408, “Interaction of Flavonoids from Woodwardia unigemmata with Bovine Serum Albumin (BSA): Application of Spectroscopic Techniques and Molecular Modeling Methods” (Molecules : A Journal of Synthetic Chemistry and Natural …, 2017).

Biological target: T1, bovine serum albumin (BSA) (Bos taurus, UniProt P02769)
T1 construct: gene ALB; commercial fatty acid-free native BSA (Shanghai Shenhang Biotechnology), mature, 583 residues, untagged; PDB 4JK4 used only for docking
T1 sequence (P02769 25-607): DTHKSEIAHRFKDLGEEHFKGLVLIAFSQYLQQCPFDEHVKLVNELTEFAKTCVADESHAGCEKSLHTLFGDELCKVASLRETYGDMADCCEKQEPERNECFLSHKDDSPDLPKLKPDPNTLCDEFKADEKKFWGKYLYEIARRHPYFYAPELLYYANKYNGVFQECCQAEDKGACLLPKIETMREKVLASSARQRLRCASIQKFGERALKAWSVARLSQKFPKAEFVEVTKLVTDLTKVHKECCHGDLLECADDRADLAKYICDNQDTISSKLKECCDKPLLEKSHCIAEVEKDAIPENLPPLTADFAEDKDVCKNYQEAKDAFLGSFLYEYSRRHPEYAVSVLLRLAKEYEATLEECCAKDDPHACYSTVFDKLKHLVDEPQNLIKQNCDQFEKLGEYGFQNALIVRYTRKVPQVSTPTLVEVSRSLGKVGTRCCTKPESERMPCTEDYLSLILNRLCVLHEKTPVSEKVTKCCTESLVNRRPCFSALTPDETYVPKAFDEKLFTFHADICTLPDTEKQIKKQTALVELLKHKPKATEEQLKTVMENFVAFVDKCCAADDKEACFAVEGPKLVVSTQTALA
Assay: intrinsic fluorescence quenching (ex […] nm)
Assay type: binding
Settings: 297 K, pH 7.4, 0.05 M Tris-HCl, 0.1 M NaCl, 5 µM BSA; double-log

| Kb (×10^5 L.mol^-1) | Structure (SMILES) |
| --- | --- |
| 0.41 × 10^5 L·mol^−1 | CC(=O)O[C@@H]1[C@@H](O)[C@@H](O)[C@H](Oc2cc(O)c3c(=O)c(O[C@@H]4O[C@@H](C)[C@H](OC(C)=O)[C@@H](OC(C)=O)[C@H]4O)c(-c4ccc(O)cc4)oc3c2)O[C@H]1C [compound 1, kaempferol3-O-α-L-(3,4-O-di-acetyl) rhamopyranoside-7-O-α-L-(4-O-acetyl) rhamnopyranoside] |
| 0.57 × 10^5 L·mol^−1 | CC(=O)O[C@@H]1[C@@H](OC(C)=O)[C@@H](O)[C@H](Oc2c(-c3ccc(O)cc3)oc3cc(O[C@@H]4O[C@@H](C)[C@H](O)[C@@H](O)[C@H]4O)cc(O)c3c2=O)O[C@H]1C [compound 2, crassirhizomoside B] |
| 1.06 × 10^5 L·mol^−1 | CC(=O)O[C@@H]1[C@@H](O)[C@H](C)O[C@@H](Oc2c(-c3ccc(O)cc3)oc3cc(O[C@@H]4O[C@@H](C)[C@H](O)[C@@H](O)[C@H]4O)cc(O)c3c2=O)[C@@H]1O [compound 4, kaempferol 3-O-α-L-(3-O-acetyl) rhamopyranoside-7-O-α-L-rhamnopyranoside] |
| 0.96 × 10^5 L·mol^−1 | CC(=O)O[C@H]1[C@H](Oc2c(-c3ccc(O)cc3)oc3cc(O[C@@H]4O[C@@H](C)[C@H](O)[C@@H](O)[C@H]4O)cc(O)c3c2=O)O[C@@H](C)[C@H](O)[C@H]1O [compound 5, kaempferol 3-O-α-L-(2-O-acetyl) rhamopyranoside-7-O-α-L-rhamnopyranoside] |
